Results as given in ChEMBL document CHEMBL2094260, “Malaria Box Tuberculosis Screening Data”.

Experiments:
[1] = system: Mycobacterium tuberculosis; experiment: MMV: Screen against Mtb, single point, non replicating, at 25uM; format: functional
[2] = system: Mycobacterium tuberculosis; experiment: MMV: Screen against Mtb, single point, replicating, at 25uM; format: functional

| Compound | inhibition at 25 µM [1] [%] | inhibition at 25 µM [2] [%] |
| --- | --- | --- |
| Cc1cc(NC(=O)c2cccc(C(F)(F)F)c2)n(-c2nc(-c3ccc4c(c3)OCO4)cs2)n1 | 3.48 | 5.83 |
| Cc1cccc(-n2ncc3c(O)nc(-n4nc(C)cc4NC(=O)c4cc5ccccc5o4)nc32)c1 | 48.2 | 48.5 |
| O=C(Nc1ccccc1O)c1ccc(Oc2cccc(C(=O)Nc3ccccc3O)c2)cc1 | 11.7 | 11.8 |
| Oc1ccccc1CN1CCC2(CCCN(Cc3ccccc3F)C2)C1 (configuration not stated) | 9.59 | 50.6 |
| N=c1n(CCN2CCCCC2)c2ccccc2n1CC(O)c1cccc(Br)c1 (configuration not stated) | 12.9 | 16.3 |
| COc1cccc(O)c1CN1CCC2(CCCN(Cc3ccc(F)cc3)C2)C1 (configuration not stated) | 16.4 | 18 |
| Cc1ccc(-c2cc(C(=O)Nc3ccc(S(=O)(=O)N4CCCCC4)cc3)[nH]n2)c(O)c1 | 9.41 | 11.4 |
| O=C(NCc1ccco1)C1CCN(S(=O)(=O)c2ccc(Cl)cc2)CC1 | 12.4 | 46.4 |
| COc1ccc(C(=O)Nc2ccc3nc(N4CCCCC4)cc(C)c3c2)cc1OC | 23.7 | 21.3 |
| COc1ccc(N2CCN(C(CNC(=O)C3CCCCC3)c3ccc4c(c3)OCO4)CC2)cc1 (configuration not stated) | 0.862 | -3.89 |
| c1ccc(-c2ccc(-c3nc4ccccc4[nH]3)cc2)cc1 | 0.513 | 20.6 |
| CCC(C)NCC(O)(c1ccc(Cl)cc1)c1ccc(Cl)cc1 (configuration not stated) | 10.6 | 17.4 |
| COc1cc2cc(C(=O)Nc3ccccc3)c(N)nc2cc1OC | 1.39 | 17.1 |
| COc1cccc(NC(=O)Cn2c(C)c(C#N)c3ccccc32)c1 | 8.89 | 7.96 |
| Cn1c(=O)c2cc(C(=O)NCCCN3CCCCCC3)sc2c2ccccc21 | 14.6 | 19.5 |
| Cc1[nH]c(-c2ccc(F)cc2)cc1C(=O)NC1CCN(Cc2ccccc2)CC1 | 4 | 20.7 |
| COc1ccc(CCN2CCC(CN(C)Cc3cnn(-c4ccccc4)c3)CC2)cc1 | 15 | 21.3 |
| O=C(NC(c1ccccc1)c1ccc2cccnc2c1O)c1ccccc1 (configuration not stated) | 17.1 | 7.65 |
| COCCNC(=O)c1ccc(OC2CCN(Cc3ccc(F)c(F)c3)CC2)c(Cl)c1 | 14.1 | 12.7 |
| Oc1ccccc1CN1CCN(C(c2ccccc2)c2ccccc2)CC1 | 28.8 | 33.3 |
| O=C(NC1CCCC1)c1ccc(N2CCC(NCc3cccc(C(F)(F)F)c3)CC2)cc1 | 3.83 | 22.1 |

| Compound | inhibition at 25 µM [1] [%] | inhibition at 25 µM [2] [%] |
| --- | --- | --- |
| CCOc1cc(Br)c(C(C)NC(=O)c2cccc(OC)c2)cc1OCC (configuration not stated) | 5.22 | 11.9 |
| CC(C)=CCN1CCC(C(=O)Nc2ccc(-c3nc4ccccc4[nH]3)cc2)CC1 | 17.3 | 12.5 |
| CCN(CC)CCn1c(=N)n(CC(O)c2ccc(Cl)c(Cl)c2)c2ccccc21 (configuration not stated) | 10.1 | 36.2 |
| CCOc1cc(Cl)c(C(C)NC(=O)c2cccc(OC)c2)cc1OCC (configuration not stated) | 9.94 | 1.28 |
| O=C(CCc1ccco1)NC1CCN(CC2(c3ccc(Cl)cc3)CCC2)CC1 | 20.8 | 31.6 |
| FC(F)(F)c1cccc(Nc2nc(-c3ccccc3)nc3ncccc23)c1 | 7.32 | 1.43 |
| CCN1CCN(c2cc(C)c3cc(NC(=O)c4ccc(OC)c(OC)c4)ccc3n2)CC1 | 12.7 | 14.8 |
| COc1ccc(CNC2CCN(c3ccc(NC(=O)c4cccc(Cl)c4)cc3)CC2)cc1OC | 19.2 | 47.3 |
| COCCN(C(=O)Cc1cccs1)C(C(=O)NCc1ccc(OC)cc1)c1ccc(C(C)C)cc1 (configuration not stated) | 31.4 | 10.2 |
| Cc1ccc(CSCc2ccc(C(=O)NC3CC3)o2)cc1 | 11.3 | 24.4 |
| CC(NCc1ccccc1)c1cc(Cl)ccc1O (configuration not stated) | 14.8 | 21.2 |
| CN1CCN(c2c3c(c(C#N)c4nc5ccccc5n24)CCC3)CC1 | 4.53 | 7.2 |
| CCOc1ccc(C2N(C)c3ccccc3N2C)cc1 | 11.7 | 8.11 |
| FC(F)(F)c1cccc(CNC2CCN(CCc3ccccc3)CC2)c1 | 2.96 | 22.8 |
| Oc1ccc(Cl)cc1CNc1nc2ccccc2[nH]1 | 4.53 | 38.6 |
| O=C(c1ccccc1F)N(Cc1ccc(Cl)cc1)c1ccccn1 | 5.4 | 9.78 |
| COc1ccc(C(=O)Nc2ccc(Cl)cc2C(=O)Nc2ccncc2)cc1 | 30.9 | 4.46 |
| O=C(Nc1ccc(CN2CCOCC2)cc1)c1ccc(-c2ccc(Br)cc2)o1 | 24.4 | 26 |
| CC(=O)NCCc1nc2ccccc2n1Cc1ccc(C(C)C)cc1 | 8.72 | 2.04 |
| COc1nc(Nc2ccc(C(C)C)cc2)nc(OC)n1 | 8.02 | 14 |
| CCN(CC)CCNc1ncnc2c1[nH]c1ccc(Br)cc12 | 13.4 | 20.6 |

| Compound | inhibition at 25 µM [1] [%] | inhibition at 25 µM [2] [%] |
| --- | --- | --- |
| CCOc1cccc(C(=O)Nc2ccc(-c3nc4ccccc4[nH]3)cc2)c1 | 18 | 15.5 |
| O=C(Nc1ccc(Cl)cc1)N1CCN(c2ccc3nncn3n2)CC1 | -3.33 | 12.8 |
| CN(C)c1ccc(-c2nc3cc(N)ccc3[nH]2)cc1 | 16.4 | -1 |
| O=C(CSc1ccc2nnc(-c3cccc(F)c3)n2n1)Nc1ccc2c(c1)OCO2 | 19.2 | 5.98 |
| CCN(CC)c1ccc(NC(=O)c2cccs2)cc1 | 13.1 | 4.01 |
| CCCCNCC(O)(c1ccc(Cl)cc1)c1ccc(Cl)cc1 | 9.41 | 16.9 |
| CCCC(c1nnnn1C1CCCCC1)N1CCN(C(=O)c2ccco2)CC1 (configuration not stated) | 5.57 | 20.4 |
| CC(C)(C)C(=O)Nc1ccc(C(=O)Nc2cccc(-c3nc4ccccc4[nH]3)c2)cc1 | 8.19 | 10.8 |
| COc1ccc(-c2nonc2NC(=O)c2cccc(C)c2)cc1OC | -4.72 | 3.1 |
| COc1cccc(-c2nn(C)c3sc(C(=O)NCCN4CCN(c5ccccc5F)CC4)cc23)c1 | 14.8 | 29.5 |
| O=C(Nc1ccc(N2CCN(Cc3ccccc3)CC2)cc1)c1cccs1 | 6.45 | 11 |
| Cc1ccc(CN2CCC(C(=O)Nc3ccc(-c4cc5ccccc5[nH]4)cc3)CC2)o1 | 22.9 | 8.26 |
| O=C(Nc1ccc(N2CCCCC2)c(Cl)c1)c1ccc(Br)o1 | 11.9 | 18.9 |
| Cc1ccc(Cn2c(N3CCC(C(=O)NCc4cccs4)CC3)nc3ccccc32)cc1 | 5.22 | 44.4 |
| O=C(Nc1ccsc1C(=O)NC1CCCCC1)c1ccc(F)cc1 | 20.6 | 3.4 |
| CC(C)(C)c1ccc(C(=O)Nc2nc3ccccc3s2)cc1 | -0.011 | 54 |
| CCOc1cccc2sc(N(Cc3cccnc3)C(=O)C3CCCCC3)nc12 | 14.3 | 13.9 |
| CC1CC(C)CN(C(=O)c2ccc(Cl)cc2Cl)C1 (configuration not stated) | 9.59 | 14.8 |
| COc1ccccc1CNC(=O)C1c2ccccc2C(=O)N(CC(C)C)C1c1cccs1 (configuration not stated) | 9.76 | 15.7 |
| OC(CNC1CCCC1)Cn1c2ccccc2c2ccccc21 (configuration not stated) | 13.1 | 27.5 |
| COc1ccc(C2N(C)c3ccccc3N2C)cc1 | -0.36 | -1.76 |

| Compound | inhibition at 25 µM [1] [%] | inhibition at 25 µM [2] [%] |
| --- | --- | --- |
| CCN(CC)c1cc(C)c2cc(NC(=O)c3cccc(OC)c3)ccc2n1 | 19.7 | 18.7 |
| CCOc1ccc(/C=C/c2nc(=O)c3ccccc3o2)cc1 | 12 | 18.9 |
| O=C(Nc1ccccc1O)c1ccc(-c2ccc(Cl)cc2Cl)o1 | 27.6 | 13.7 |
| CC(C)OCc1cc(CN2CCN(c3cccc(Cl)c3)CC2)c(O)c2ncccc12 | 11.7 | 9.32 |
| CC(O)(c1ccc(Cl)cc1)C(CN1CCCCC1)c1ccccc1 (configuration not stated) | 11.2 | 8.72 |
| CCCCc1ccc(NS(=O)(=O)c2cc3c4c(c2)CCN4C(=O)CC3)cc1 | -2.45 | 7.2 |
| CCOc1ccc(-c2nc(NC(=O)c3cccc(S(C)(=O)=O)c3)sc2C)cc1 | 11.7 | 54.3 |
| CCOc1ccccc1CNC(=O)C1c2ccccc2C(=O)N(CC(C)C)C1c1cccs1 (configuration not stated) | 10.8 | 43.5 |
| Clc1ccc2[nH]c3c(NCCCN4CCOCC4)ncnc3c2c1 | 21.6 | 16.2 |
| COc1ccccc1N1CCN(C(CNS(=O)(=O)c2ccc(Cl)cc2)c2cccnc2)CC1 (configuration not stated) | 15.2 | 4.01 |
| CCCc1c(C)nc2ccccc2c1O | 9.94 | 15.9 |
| CCOc1c(Cl)cc(CNC(C)C(O)c2ccccc2)cc1OC (configuration not stated) | 10.3 | 12.7 |
| COc1ccc(C2Sc3ccccc3N=C3C2=C(O)c2ccccc23)cc1 (configuration not stated) | -1.58 | 8.41 |
| CCCN(CCC)CCCNC(=O)c1cc2c(-c3ccc(OC)c(OC)c3)nn(C)c2s1 | -0.011 | 5.83 |
| CN1c2ccccc2N(C)C1c1ccc2c(c1)OCO2 | 14.5 | 9.63 |
| O=C(NCC1Cc2cccc(-c3ccncc3)c2O1)c1csc2c1CCCC2 (configuration not stated) | 5.92 | 14.2 |
| C=C(C)CCC(C)N1CCC(N2CCC(C(=O)NCCc3ccccc3)CC2)CC1 (configuration not stated) | 15.2 | -4.8 |
| C=CCc1c(C)nc2ccccc2c1O | 1.56 | 15.2 |
